Eleven compounds from patent US20260022142A1, “MACROCYCLIC IMMUNOMODULATORS” (Bristol-Myers Squibb Company, priority 2022, published 2026) can be followed below.

Bridge positions count the residues as written; N and C are the ends. Square brackets hold non-standard residues; d marks the D form. Peptide text beside a SMILES is read from it. * marks the point of attachment. Phe(F5) = N[C@@H](Cc1c(F)c(F)c(F)c(F)c1F)C(=O)O; Phe(4-COOH) = N[C@@H](Cc1ccc(C(=O)O)cc1)C(=O)O; Phe(3,5-F2) = N[C@@H](Cc1cc(F)cc(F)c1)C(=O)O; Phe(2,4-F2) = N[C@@H](Cc1ccc(F)cc1F)C(=O)O; Bip = N[C@@H](Cc1ccc(-c2ccccc2)cc1)C(=O)O; Phe(2-Cl) = N[C@@H](Cc1ccccc1Cl)C(=O)O; Phe(3-F) = N[C@@H](Cc1cccc(F)c1)C(=O)O; Phe(3-Me) = Cc1cccc(C[C@H](N)C(=O)O)c1; Phe(4-F) = N[C@@H](Cc1ccc(F)cc1)C(=O)O; Phe(2-Me) = Cc1ccccc1C[C@H](N)C(=O)O; Val(3-OH) = CC(C)(O)[C@H](N)C(=O)O; hCha = N[C@@H](CCC1CCCCC1)C(=O)O; 4Pal = N[C@@H](Cc1ccncc1)C(=O)O; Cha = N[C@@H](CC1CCCCC1)C(=O)O; Ahp(2) = CCCCC[C@H](N)C(=O)O; Carboxymethyl = O=C(O)C*; Orn = NCCC[C@H](N)C(=O)O; Pra = C#CC[C@H](N)C(=O)O; Aun = NCCCCCCCCCCC(=O)O; Dab = NCC[C@H](N)C(=O)O; Dap = NC[C@H](N)C(=O)O; AEEA = NCCOCCOCC(=O)O

A word on the IC50: it is the concentration that gives 50% inhibition.

The target in the assay is T1, PD-1/PD-L1 interaction (PE-labeled human PD-L1-Ig binding to Jurkat cell line over-expressing human PD-1) (Homo sapiens, UniProt Q15116).
T1 construct: expressed in transfected cells; host or cells: Jurkat
T1 sequence (Q15116 25-288): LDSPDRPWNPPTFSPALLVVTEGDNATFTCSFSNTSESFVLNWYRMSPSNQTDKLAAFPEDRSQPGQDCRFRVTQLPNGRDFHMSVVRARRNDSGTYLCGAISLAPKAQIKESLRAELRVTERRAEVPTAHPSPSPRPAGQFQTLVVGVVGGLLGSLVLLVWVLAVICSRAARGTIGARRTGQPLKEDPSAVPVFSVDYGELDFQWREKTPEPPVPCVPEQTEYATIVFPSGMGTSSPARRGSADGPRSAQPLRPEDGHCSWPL
As to the kind of experiment: Jurkat-PD-1 Cell Binding High-Content Screening Assay (CBA). The note with it: Jurkat cell line over-expressing human PD-1; PE-labeled PD-L1-Ig 20 nM final; read-out: Jurkat hPD1-PDL1 IC50. The format is cell-based. In a few lines: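 Read-out is high-content imaging of cell-bound phycoerythrin-tagged PD-L1-Ig on fixed, Hoechst-counterstained Jurkat cells that over-express human PD-1. Compound exposure lasts 2 h at 37° C before the labeled ligand (20 nM final) is added for a further hour.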
With `Cc1cccc(C[C@@H]2NC(=O)[C@H](CC(=O)O)NC(=O)[C@H](Cc3ccc(OCC(=O)O)cc3)NC(=O)[C@H](CN)NC(=O)CSC[C@@H](C(=O)N[C@@H](CCN)C(=O)NCCOCCOCC(=O)NCCCCCCCCCCC(=O)O)NC(=O)[C@H](CCC(=O)O)NC(=O)[C@H](C(C)C)NC(=O)[C@H](Cc3cccc(F)c3)NC(=O)[C@H](CCN)NC(=O)[C@@H](CC(C)C)NC(=O)[C@H](CCCN)NC(=O)[C@H](Cc3ccc(OCC(=O)O)cc3)NC(=O)[C@H](Cc3ccc(-c4ccccc4)cc3)NC(=O)[C@H](Cc3ccc(C(=O)O)cc3)NC2=O)c1` [Compound 1268] ({CH2CO}-[Dap]Y(Carboxymethyl)D[Phe(3-Me)][Phe(4-COOH)][Bip]Y(Carboxymethyl)[Orn][dL][Dab][Phe(3-F)]VEC[Dab][AEEA][Aun]-OH; thioether N-14), the IC50 was determined as 13.2 nM.
Then `Cc1cccc(C[C@@H]2NC(=O)[C@H](CC(=O)O)NC(=O)[C@H](Cc3ccc(OCC(=O)O)cc3)NC(=O)[C@H](CN)NC(=O)CSC[C@@H](C(=O)N[C@@H](CCN)C(=O)NCCOCCOCC(=O)NCCCCCCCCCCC(=O)O)NC(=O)[C@H](CCC(=O)O)NC(=O)[C@H](C(C)C)NC(=O)[C@H](Cc3cc(F)cc(F)c3)NC(=O)[C@H](CCN)NC(=O)[C@@H](CC(C)C)NC(=O)[C@H](CCCN)NC(=O)[C@H](Cc3ccc(OCC(=O)O)cc3)NC(=O)[C@H](Cc3ccc(-c4ccccc4)cc3)NC(=O)[C@H](Cc3ccc(C(=O)O)cc3)NC2=O)c1` [Compound 1269] ({CH2CO}-[Dap]Y(Carboxymethyl)D[Phe(3-Me)][Phe(4-COOH)][Bip]Y(Carboxymethyl)[Orn][dL][Dab][Phe(3,5-F2)]VEC[Dab][AEEA][Aun]-OH; thioether N-14), with 11.4 nM.
`Cc1cccc(C[C@@H]2NC(=O)[C@H](CC(=O)O)NC(=O)[C@H](Cc3ccc(OCC(=O)O)cc3)NC(=O)[C@H](CN)NC(=O)CSC[C@@H](C(=O)N[C@@H](CCN)C(=O)NCCOCCOCC(=O)NCCCCCCCCCCC(=O)O)NC(=O)[C@H](CCC(=O)O)NC(=O)[C@H](C(C)C)NC(=O)[C@H](Cc3ccc(F)cc3)NC(=O)[C@H](CCN)NC(=O)[C@@H](CC(C)C)NC(=O)[C@H](CCCN)NC(=O)[C@H](Cc3ccc(OCC(=O)O)cc3)NC(=O)[C@H](Cc3ccc(-c4ccccc4)cc3)NC(=O)[C@H](Cc3ccc(C(=O)O)cc3)NC2=O)c1` [Compound 1270] ({CH2CO}-[Dap]Y(Carboxymethyl)D[Phe(3-Me)][Phe(4-COOH)][Bip]Y(Carboxymethyl)[Orn][dL][Dab][Phe(4-F)]VEC[Dab][AEEA][Aun]-OH; thioether N-14): the IC50 amounted to 48.4 nM.
Then `Cc1cccc(C[C@@H]2NC(=O)[C@H](CC(=O)O)NC(=O)[C@H](Cc3ccc(OCC(=O)O)cc3)NC(=O)[C@H](CN)NC(=O)CSC[C@@H](C(=O)N[C@@H](CCN)C(=O)NCCOCCOCC(=O)NCCCCCCCCCCC(=O)O)NC(=O)[C@H](CCC(=O)O)NC(=O)[C@H](C(C)C)NC(=O)[C@H](Cc3cccc(C)c3)NC(=O)[C@H](CCN)NC(=O)[C@@H](CC(C)C)NC(=O)[C@H](CCCN)NC(=O)[C@H](Cc3ccc(OCC(=O)O)cc3)NC(=O)[C@H](Cc3ccc(-c4ccccc4)cc3)NC(=O)[C@H](Cc3ccc(C(=O)O)cc3)NC2=O)c1` [Compound 1271] ({CH2CO}-[Dap]Y(Carboxymethyl)D[Phe(3-Me)][Phe(4-COOH)][Bip]Y(Carboxymethyl)[Orn][dL][Dab][Phe(3-Me)]VEC[Dab][AEEA][Aun]-OH; thioether N-14), with 19.9 nM; and `Cc1cccc(C[C@@H]2NC(=O)[C@H](CC(=O)O)NC(=O)[C@H](Cc3ccc(OCC(=O)O)cc3)NC(=O)[C@H](CN)NC(=O)CSC[C@@H](C(=O)N[C@@H](CCN)C(=O)NCCOCCOCC(=O)NCCCCCCCCCCC(=O)O)NC(=O)[C@H](CCC(=O)O)NC(=O)[C@H](C(C)C)NC(=O)[C@H](Cc3ccc(F)cc3F)NC(=O)[C@H](CCN)NC(=O)[C@@H](CC(C)C)NC(=O)[C@H](CCCN)NC(=O)[C@H](Cc3ccc(OCC(=O)O)cc3)NC(=O)[C@H](Cc3ccc(-c4ccccc4)cc3)NC(=O)[C@H](Cc3ccc(C(=O)O)cc3)NC2=O)c1` [Compound 1272] ({CH2CO}-[Dap]Y(Carboxymethyl)D[Phe(3-Me)][Phe(4-COOH)][Bip]Y(Carboxymethyl)[Orn][dL][Dab][Phe(2,4-F2)]VEC[Dab][AEEA][Aun]-OH; thioether N-14), with 74.2 nM; and `Cc1cccc(C[C@@H]2NC(=O)[C@H](CC(=O)O)NC(=O)[C@H](Cc3ccc(OCC(=O)O)cc3)NC(=O)[C@H](CN)NC(=O)CSC[C@@H](C(=O)N[C@@H](CCN)C(=O)NCCOCCOCC(=O)NCCCCCCCCCCC(=O)O)NC(=O)[C@H](CCC(=O)O)NC(=O)[C@H](C(C)C)NC(=O)[C@H](Cc3c(F)c(F)c(F)c(F)c3F)NC(=O)[C@H](CCN)NC(=O)[C@@H](CC(C)C)NC(=O)[C@H](CCCN)NC(=O)[C@H](Cc3ccc(OCC(=O)O)cc3)NC(=O)[C@H](Cc3ccc(-c4ccccc4)cc3)NC(=O)[C@H](Cc3ccc(C(=O)O)cc3)NC2=O)c1` [Compound 1273] ({CH2CO}-[Dap]Y(Carboxymethyl)D[Phe(3-Me)][Phe(4-COOH)][Bip]Y(Carboxymethyl)[Orn][dL][Dab][Phe(F5)]VEC[Dab][AEEA][Aun]-OH; thioether N-14), with 331 nM.
For `Cc1cccc(C[C@@H]2NC(=O)[C@H](CC(=O)O)NC(=O)[C@H](Cc3ccc(OCC(=O)O)cc3)NC(=O)[C@H](CN)NC(=O)CSC[C@@H](C(=O)N[C@@H](CCN)C(=O)NCCOCCOCC(=O)NCCCCCCCCCCC(=O)O)NC(=O)[C@H](CCC(=O)O)NC(=O)[C@H](C(C)C)NC(=O)[C@H](Cc3ccccc3C)NC(=O)[C@H](CCN)NC(=O)[C@@H](CC(C)C)NC(=O)[C@H](CCCN)NC(=O)[C@H](Cc3ccc(OCC(=O)O)cc3)NC(=O)[C@H](Cc3ccc(-c4ccccc4)cc3)NC(=O)[C@H](Cc3ccc(C(=O)O)cc3)NC2=O)c1` [Compound 1274] ({CH2CO}-[Dap]Y(Carboxymethyl)D[Phe(3-Me)][Phe(4-COOH)][Bip]Y(Carboxymethyl)[Orn][dL][Dab][Phe(2-Me)]VEC[Dab][AEEA][Aun]-OH; thioether N-14), the half-inhibitory concentration (IC50) is 9.8 nM.
The figure for `CCCCC[C@@H]1NC(=O)[C@H](CCN)NC(=O)[C@@H](CC(C)C)NC(=O)[C@H](CCCN)NC(=O)[C@H](Cc2ccc(OCC(=O)O)cc2)NC(=O)[C@H](Cc2ccc(-c3ccccc3)cc2)NC(=O)[C@H](Cc2ccc(C(=O)O)cc2)NC(=O)[C@H](Cc2cccc(C)c2)NC(=O)[C@H](CC(=O)O)NC(=O)[C@H](Cc2ccc(OCC(=O)O)cc2)NC(=O)[C@H](CN)NC(=O)CSC[C@@H](C(=O)N[C@@H](CCN)C(=O)NCCOCCOCC(=O)NCCCCCCCCCCC(=O)O)NC(=O)[C@H](CCC(=O)O)NC(=O)[C@H](C(C)C)NC1=O` [Compound 1275] ({CH2CO}-[Dap]Y(Carboxymethyl)D[Phe(3-Me)][Phe(4-COOH)][Bip]Y(Carboxymethyl)[Orn][dL][Dab][Ahp(2)]VEC[Dab][AEEA][Aun]-OH; thioether N-14) is 47.5 nM; for `Cc1cccc(C[C@@H]2NC(=O)[C@H](CC(=O)O)NC(=O)[C@H](Cc3ccc(OCC(=O)O)cc3)NC(=O)[C@H](CN)NC(=O)CSC[C@@H](C(=O)N[C@@H](CCN)C(=O)NCCOCCOCC(=O)NCCCCCCCCCCC(=O)O)NC(=O)[C@H](CCC(=O)O)NC(=O)[C@H](C(C)C)NC(=O)[C@H](CCC3CCCCC3)NC(=O)[C@H](CCN)NC(=O)[C@@H](CC(C)C)NC(=O)[C@H](CCCN)NC(=O)[C@H](Cc3ccc(OCC(=O)O)cc3)NC(=O)[C@H](Cc3ccc(-c4ccccc4)cc3)NC(=O)[C@H](Cc3ccc(C(=O)O)cc3)NC2=O)c1` [Compound 1276] ({CH2CO}-[Dap]Y(Carboxymethyl)D[Phe(3-Me)][Phe(4-COOH)][Bip]Y(Carboxymethyl)[Orn][dL][Dab][hCha]VEC[Dab][AEEA][Aun]-OH; thioether N-14) it is 49.9 nM; for `Cc1cccc(C[C@@H]2NC(=O)[C@H](CC(=O)O)NC(=O)[C@H](Cc3ccc(OCC(=O)O)cc3)NC(=O)[C@H](CN)NC(=O)CSC[C@@H](C(=O)N[C@@H](CCN)C(=O)NCCOCCOCC(=O)NCCCCCCCCCCC(=O)O)NC(=O)[C@H](CCC(=O)O)NC(=O)[C@H](C(C)C)NC(=O)[C@H](Cc3ccccc3Cl)NC(=O)[C@H](CCN)NC(=O)[C@@H](CC(C)C)NC(=O)[C@H](CCCN)NC(=O)[C@H](Cc3ccc(OCC(=O)O)cc3)NC(=O)[C@H](Cc3ccc(-c4ccccc4)cc3)NC(=O)[C@H](Cc3ccc(C(=O)O)cc3)NC2=O)c1` [Compound 1277] ({CH2CO}-[Dap]Y(Carboxymethyl)D[Phe(3-Me)][Phe(4-COOH)][Bip]Y(Carboxymethyl)[Orn][dL][Dab][Phe(2-Cl)]VEC[Dab][AEEA][Aun]-OH; thioether N-14) it is 14.4 nM.
Then `C#CC[C@H](NC(=O)[C@H](CCN)NC(=O)[C@@H]1CSCC(=O)N[C@@H](Cc2ccncc2)C(=O)N[C@@H](Cc2ccc(OCC(=O)O)cc2)C(=O)N[C@@H](CC(=O)O)C(=O)N[C@@H](Cc2cccc(C)c2)C(=O)N[C@@H](Cc2ccc(OC)cc2)C(=O)N[C@@H](Cc2ccc(-c3ccccc3)cc2)C(=O)N[C@@H](Cc2ccc(OCC(=O)O)cc2)C(=O)N[C@@H](CCCN)C(=O)N[C@H](CC(C)C)C(=O)N[C@@H](CCN)C(=O)N[C@@H](CC2CCCCC2)C(=O)N[C@@H](C(C)(C)O)C(=O)N[C@@H](CO)C(=O)N1)C(=O)NCCCCCCCCCCC(=O)O` [Compound 1278] ({CH2CO}-[4Pal]Y(Carboxymethyl)D[Phe(3-Me)]Y(Me)[Bip]Y(Carboxymethyl)[Orn][dL][Dab][Cha][Val(3-OH)]SC[Dab][Pra][Aun]-OH; thioether N-14), with 140 nM.
